Source: patent publication US20140296266A1, “THERAPEUTIC COMPOUNDS” (Gilead Sciences, Inc., priority 2013, published 2014)

Key:
[1] = Test B: Cytotoxicity Assay; type: cell-based; settings: human, uninfected MT-4 cells, same protocol as Test A, CellTiter-Glo
Description: (§1) For the antiviral assay, 40 μL of 1× test concentration of 3-fold serially diluted compound in culture medium with 10% FBS was added to each well of a 384-well plate (10 concentrations) in quadruplicate. MT-4 cells were next mixed with HIV-IIIb at an m.o.i of 0.003 for 1 hour, after which time 35 μL of virus/cell mixture (2000 cells) was immediately added to each well containing 40 μL of diluted compound. The plates were then incubated at 37° C. for 5 days. After 5 days of incubation, 25 μl of 2× concentrated CellTiter-Glo™ Reagent (catalog #G7571, Promega Biosciences, Inc., Madison, Wis.) was added to each well containing MT-4 cells. Cell lysis was carried out by incubating at room temperature for 10 min and then chemiluminescence was read.
Compound cytotoxicity and the corresponding CC50 values was determined using the same protocol as described in the antiviral assay (Test A) except that uninfected cells were used.

HIV-IIIb = assay: Test A: Antiviral Assay in MT4 Cells; type: cell-based, HIV-1; settings: MT-4 cells mixed with HIV-IIIb (m.o.i. 0.003), 5 days, CellTiter-Glo, calculated from the dose response curve; for inhibition at 2 µM: Human immunodeficiency virus 1, IIIB, MT4, 120 h, read-out: % inhibition at 2 μM (percent inhibition of virus-induced cell killing), 2 μM drug concentration
Description: as §1

In the case of `CC(C)(O)C#Cc1ccc(-c2cccc3c2CNC3=O)c([C@H](Cc2cc(F)cc(F)c2)NC(=O)Cn2nc(C(F)(F)F)c3c2C(F)(F)[C@@H]2C[C@H]32)n1` [Compound 14E, 2-((3bS,4aR)-5,5-difluoro-3-(trifluoromethyl)-3b,4,4a,5-tetrahydro-1H-cyclopropa[3,4]cyclopenta[1,2-c]pyrazol-1-yl)-N—((S)-2-(3,5-difluorophenyl)-1-(6-(3-hydroxy-3-methylbut-1-yn-1-yl)-3-(1-oxoisoindolin-4-yl)pyridin-2-yl)ethyl)acetamide], the CC50 at 5 days [1] is reported as 6.82 µM and the inhibition at 2 µM (HIV-IIIb) is reported as 89%.
In the case of `CC(C)(O)C#Cc1ccc(-c2ccc3c(c2)C(=O)NC3)c([C@H](Cc2cc(F)cc(F)c2)NC(=O)Cn2nc(C(F)F)c3c2C(F)(F)CCC3(F)F)n1` [Compound 9B, (S)-2-(3-(difluoromethyl)-4,4,7,7-tetrafluoro-4,5,6,7-tetrahydro-1H-indazol-1-yl)-N-(2-(3,5-difluorophenyl)-1-(6-(3-hydroxy-3-methylbut-1-yn-1-yl)-3-(3-oxoisoindolin-5-yl)pyridin-2-yl)ethyl)acetamide], the CC50 at 5 days [1] is reported as 14.6 µM and the inhibition at 2 µM (HIV-IIIb) is reported as 95%.
Work on `O=C(Cn1nc(C(F)F)c2c1C(F)(F)CCC2(F)F)N[C@@H](Cc1cc(F)cc(F)c1)c1ncc(-c2ccc3c(c2)C(=O)NC3)cc1-c1ccc2c(c1)C(=O)NC2` [Compound 10B, (S)—N-(1-(3,5-bis(3-oxoisoindolin-5-yl)pyridin-2-yl)-2-(3,5-difluorophenyl)ethyl)-2-(3-(difluoromethyl)-4,4,7,7-tetrafluoro-4,5,6,7-tetrahydro-1H-indazol-1-yl)acetamide] yielded a CC50 at 5 days [1] greater than 53.2 µM and an inhibition at 2 µM (HIV-IIIb) of 85%.
`CC(C)(O)C#Cc1ccc(-c2cccc3c(=O)[nH]cnc23)c([C@H](Cc2cc(F)cc(F)c2)NC(=O)Cn2nc(C(F)(F)F)c3c2C(F)(F)[C@@H]2C[C@H]32)n1` [Compound 2, 2-((3bS,4aR)-5,5-difluoro-3-(trifluoromethyl)-3b,4,4a,5-tetrahydro-1H-cyclopropa[3,4]cyclopenta[1,2-c]pyrazol-1-yl)-N—((S)-2-(3,5-difluorophenyl)-1-(6-(3-hydroxy-3-methylbut-1-yn-1-yl)-3-(4-oxo-3,4-dihydroquinazolin-8-yl)pyridin-2-yl)ethyl)acetamide] gave a CC50 at 5 days [1] of 14.3 µM and an inhibition at 2 µM (HIV-IIIb) of 90%.
`O=C(Cn1nc(C(F)F)c2c1C(F)(F)CCC2(F)F)N[C@@H](Cc1cc(F)cc(F)c1)c1nc(-c2cnc3[nH]ccc3c2)ccc1-c1cnc2[nH]ccc2c1` [Compound 7, (S)—N-(1-(3,6-bis(1H-pyrrolo[2,3-b]pyridin-5-yl)pyridin-2-yl)-2-(3,5-difluorophenyl)ethyl)-2-(3-(difluoromethyl)-4,4,7,7-tetrafluoro-4,5,6,7-tetrahydro-1H-indazol-1-yl)acetamide] gave a CC50 at 5 days [1] of 5.66 µM and an inhibition at 2 µM (HIV-IIIb) of 92%.
`CC(C)(O)C#Cc1cnc([C@H](Cc2cc(F)cc(F)c2)NC(=O)Cn2nc(C(F)F)c3c2C(F)(F)CCC3(F)F)c(-c2ccc3c(c2)C(=O)NC3)c1` [Compound 4H, (S)-2-(3-(difluoromethyl)-4,4,7,7-tetrafluoro-4,5,6,7-tetrahydro-1H-indazol-1-yl)-N-(2-(3,5-difluorophenyl)-1-(5-(3-hydroxy-3-methylbut-1-ynyl)-3-(3-oxoisoindolin-5-yl)pyridin-2-yl)ethyl)acetamide] gave a CC50 at 5 days [1] of 22.8 µM and an inhibition at 2 µM (HIV-IIIb) of 74%.
For `CC(C)(O)C#Cc1ccc(-c2ccc3c(c2)C(=O)NC32CC2)c([C@H](Cc2cc(F)cc(F)c2)NC(=O)Cn2nc(C(F)(F)F)c3c2C(F)(F)[C@@H]2C[C@H]32)n1` [Compound 3D, 2-((3bS,4aR)-5,5-difluoro-3-(trifluoromethyl)-3b,4,4a,5-tetrahydro-1H-cyclopropa[3,4]cyclopenta[1,2-c]pyrazol-1-yl)-N—((S)-2-(3,5-difluorophenyl)-1-(6-(3-hydroxy-3-methylbut-1-yn-1-yl)-3-(3′-oxospiro[cyclopropane-1,1′-isoindolin]-5′-yl)pyridin-2-yl)ethyl)acetamide], the CC50 at 5 days [1] was 4.15 µM and the inhibition at 2 µM (HIV-IIIb) was 82%.
With `COc1cc(-c2ccc(-c3ccc4c(c3)C(=O)NC4)c([C@H](Cc3cc(F)cc(F)c3)NC(=O)Cn3nc(C(F)F)c4c3C(F)(F)CCC4(F)F)n2)ccn1` [Compound 8C, (S)-2-(3-(difluoromethyl)-4,4,7,7-tetrafluoro-4,5,6,7-tetrahydro-1H-indazol-1-yl)-N-(2-(3,5-difluorophenyl)-1-(2′-methoxy-5-(3-oxoisoindolin-5-yl)-[2,4′-bipyridin]-6-yl)ethyl)acetamide] the CC50 at 5 days [1] was 22 µM and the inhibition at 2 µM (HIV-IIIb) was 86%.
Compound `NC(=O)c1cc(-c2ccc(-c3ccc(F)c(C(N)=O)c3)c([C@H](Cc3cc(F)cc(F)c3)NC(=O)Cn3nc(C(F)F)c4c3C(F)(F)CCC4(F)F)n2)ccc1F` [Compound 5G, (S)-5,5′-(6-(1-(2-(3-(difluoromethyl)-4,4,7,7-tetrafluoro-4,5,6,7-tetrahydro-1H-indazol-1-yl)acetamido)-2-(3,5-difluorophenyl)ethyl)pyridine-2,5-diyl)bis(2-fluorobenzamide)] has a CC50 at 5 days [1] greater than 53.2 µM.
In the case of `O=C(Cn1nc(C(F)F)c2c1C(F)(F)CCC2(F)F)N[C@@H](Cc1cc(F)cc(F)c1)c1nc(-c2c[nH]nn2)ccc1-c1cnc2[nH]ccc2c1` [Compound 16C], the “% inhibition at 2 μM (percent inhibition of virus-induced cell killing)” value (HIV-IIIb; 2 μM drug concentration) is reported as 65%.
Work on `O=C(Cn1nc(C(F)F)c2c1C(F)(F)CCC2(F)F)N[C@@H](Cc1cc(F)cc(F)c1)c1nc(-c2cc[nH]c(=O)c2)ccc1-c1ccc2c(c1)C(=O)NC2` [Compound 12, (S)-2-(3-(difluoromethyl)-4,4,7,7-tetrafluoro-4,5,6,7-tetrahydro-1H-indazol-1-yl)-N-(2-(3,5-difluorophenyl)-1-(2′-oxo-5-(3-oxoisoindolin-5-yl)-1′,2′-dihydro-[2,4′-bipyridin]-6-yl)ethyl)acetamide] yielded a CC50 at 5 days [1] greater than 53.2 µM and an inhibition at 2 µM (HIV-IIIb) of 58%.
With `O=C(Cn1nc(C(F)F)c2c1C(F)(F)CCC2(F)F)N[C@@H](Cc1cc(F)cc(F)c1)c1nc(-c2cc[nH]c(=O)c2)ccc1-c1cc[nH]c(=O)c1` [Compound 13, (S)-2-(3-(difluoromethyl)-4,4,7,7-tetrafluoro-4,5,6,7-tetrahydro-1H-indazol-1-yl)-N-(2-(3,5-difluorophenyl)-1-(2,2″-dioxo-1,1″,2,2″-tetrahydro-[4,2′:5′,4″-terpyridin]-6′-yl)ethyl)acetamide] the CC50 at 5 days [1] was greater than 53.2 µM and the inhibition at 2 µM (HIV-IIIb) was 0%.
Work on `O=C(Cn1nc(C(F)F)c2c1C(F)(F)CCC2(F)F)N[C@@H](Cc1cc(F)cc(F)c1)c1ncc(-c2cnc3[nH]ccc3c2)cc1-c1cnc2[nH]ccc2c1` [Compound 11, (S)—N-(1-(3,5-di(1H-pyrrolo[2,3-b]pyridin-5-yl)pyridin-2-yl)-2-(3,5-difluorophenyl)ethyl)-2-(3-(difluoromethyl)-4,4,7,7-tetrafluoro-4,5,6,7-tetrahydro-1H-indazol-1-yl)acetamide] yielded a CC50 at 5 days [1] greater than 53.2 µM and an inhibition at 2 µM (HIV-IIIb) of 66%.
Compound `CC(C)(O)C#Cc1ccc(-c2cccc3c(=O)[nH]c(=O)[nH]c23)c([C@H](Cc2cc(F)cc(F)c2)NC(=O)Cn2nc(C(F)(F)F)c3c2C(F)(F)[C@@H]2C[C@H]32)n1` [Compound 17, 2-((3bS,4aR)-5,5-difluoro-3-(trifluoromethyl)-3b,4,4a,5-tetrahydro-1H-cyclopropa[3,4]cyclopenta[1,2-c]pyrazol-1-yl)-N—((S)-2-(3,5-difluorophenyl)-1-(3-(2,4-dioxo-1,2,3,4-tetrahydroquinazolin-8-yl)-6-(3-hydroxy-3-methylbut-1-ynyl)pyridin-2-yl)ethyl)acetamide] has a CC50 at 5 days [1] of 12.6 µM and an inhibition at 2 µM (HIV-IIIb) of 80%.
Compound `CC(C)(O)C#Cc1ccc(-c2ccc(F)c(C(N)=O)c2)c([C@H](Cc2cc(F)cc(F)c2)NC(=O)Cn2nc(C(F)(F)F)c3c2C(F)(F)[C@@H]2C[C@H]32)n1` [Compound 18, 5-(2-((S)-1-(2-((3bS,4aR)-5,5-difluoro-3-(trifluoromethyl)-3b,4,4a,5-tetrahydro-1H-cyclopropa[3,4]cyclopenta[1,2-c]pyrazol-1-yl)acetamido)-2-(3,5-difluorophenyl)ethyl)-6-(3-hydroxy-3-methylbut-1-yn-1-yl)pyridin-3-yl)-2-fluorobenzamide] has a CC50 at 5 days [1] of 6.93 µM.
With `NC(=O)c1ccc(-c2cnc3[nH]ccc3c2)c([C@H](Cc2cc(F)cc(F)c2)NC(=O)Cn2nc(C(F)F)c3c2C(F)(F)CCC3(F)F)n1` [Compound 1B, (S)-6-(1-(2-(3-(difluoromethyl)-4,4,7,7-tetrafluoro-4,5,6,7-tetrahydro-1H-indazol-1-yl)acetamido)-2-(3,5-difluorophenyl)ethyl)-5-(1H-pyrrolo[2,3-b]pyridin-5-yl)picolinamide] the CC50 at 5 days [1] was 8.57 µM and the inhibition at 2 µM (HIV-IIIb) was 77%.
With `O=C(Cn1nc(C(F)F)c2c1C(F)(F)CCC2(F)F)N[C@@H](Cc1cc(F)cc(F)c1)c1nc(-c2ccc3c(c2)C(=O)NC3)ccc1-c1ccc2c(c1)C(=O)NC2` [Compound 6, (S)—N-(1-(3,6-bis(3-oxoisoindolin-5-yl)pyridin-2-yl)-2-(3,5-difluorophenyl)ethyl)-2-(3-(difluoromethyl)-4,4,7,7-tetrafluoro-4,5,6,7-tetrahydro-1H-indazol-1-yl)acetamide] the CC50 at 5 days [1] was greater than 53.2 µM and the inhibition at 2 µM (HIV-IIIb) was 73%.
